{"source": "PubChem BioAssay AID1963973", "about": "(Molecular Pharmacology Branch, DTP, NCI, 2024);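 note: spheroids exposed to agents for 7 days before the viability read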", "system": "883617-216-R-J1-PDC tumor spheroids, viability", "assay": "Anticancer human tumor 883617-216-R-J1-PDC patient-derived bladder carcinoma cell line growth inhibition [PI3K]", "conditions": "spheroids with HUVEC and MSC; for viability, T/C: stronger effect = lower value", "excerpt": "Combinatorial screen of targeted agents with the PI3K inhibitors inavolisib, alpelisib, duvelisib, and copanlisib in multi-cell type tumor spheroids\nA high-throughput screen of multi-cell type tumor spheroids was designed to identify active combinations of targeted small molecules and PI3K pathway inhibitors. Complex spheroids include a stromal component modeled by human endothelial cells (HUVEC) and fibroblasts modeled by human mesenchymal stem cells (MSCs). The concentration ranges selected for each drug and investigational agent were based upon clinically achievable concentrations if the clinical Cmax of the agent was known.\nCompounds. The drugs and investigational agents: inavolisib (NSC800729), alpelisib (NSC765974), duvelisib (NSC772469), copanlisib (NSC816437), ipatasertib (NSC767898), afuresertib (NSC778305), talazoparib (NSC767125), sapanisertib (NSC764658), selumetinib (NSC741078), tovorafenib (DAY101, NSC766906), vemurafenib (NSC761431), ravoxertinib (NSC781343), sotorasib (NSC818433), MRTX1133 (NSC 836407), abemaciclib (NSC 768073), palbociclib (NSC758247), venetoclax (NSC 766270), SY5609 (NSC837396), enzalutamide (NSC755605), and darolutamide (NSC825331), were obtained from the National Cancer Institute (NCI) Developmental Therapeutics Program Chemical Repository. The FDA-approved anticancer drug set is available from the NCI Developmental Therapeutics Program. […] The stock solutions were prepared in dimethyl sulfoxide (DMSO, Sigma-Aldrich, St. Louis, MO, cat. D2650) at 800-fold the tested concentration and stored at -70 degrees C prior to their use. All drugs and investigational agents were tested over a range starting from a high concentration at or near the clinical Cmax and decreasing in half-log increments. If the clinical Cmax for an agent had not been determined, the highest concentration tested was 10 microM.\nCell Culture. All cells were maintained in an incubator at 37 degrees C and 5% CO2 with 95% humidity. The PDC lines were cultured according to standard operating procedures established by the NCI PDMR (https://pdmr.cancer.gov/sops/default.htm). All PDCs were thawed and cultured in Matrigel-coated flasks prepared with a working solution of 1X Ham's F-12 nutrient mix, without supplementation (Invitrogen, Waltham, MA, cat. 11765054), 100 U/mL penicillin-streptomycin (Invitrogen, cat. 15140122), and 2.5% Matrigel (Corning Inc., Corning, NY, cat. 354248) for the first three passages. The 354836-022-R-J1-PDC, 475296-252-R-J1-PDC, and 997726-040-R-J2-PDC lines were cultured in 6A media, which includes advanced DMEM/F-12 (Thermo Fisher Scientific, cat. 12634028), 10 mM HEPES (Thermo Fisher Scientific, cat. 15630080), 1X GlutaMAX supplement (Thermo Fisher Scientific, cat. 35050061), 0.1 mg/mL primocin (InvivoGen, San Diego, CA, cat. ant-pm-2), 10% defined fetal bovine serum, heat inactivated (HyClone Laboratories Inc., Logan, UT, cat. SH30070.03HI), 50% L-WRN conditioned media (ATCC, cat. CRL-3276), 1.25 mM N-Acetyl-L-cysteine (Sigma-Aldrich, cat. A9165), 10 mM nicotinamide (Sigma-Aldrich, cat. N0636), 1X B-27 supplement (Thermo Fisher Scientific, cat. 17504044), 1X N-2 supplement (Thermo Fisher Scientific, cat. 17502048), and 10 microM Y-27632 dihydrochloride (Tocris Bioscience, Bristol, United Kingdom, cat. 1254). The 624824-186-R-J2-PDC line was cultured in 6C/Colon 1B media, which includes all 6A media components plus 50 ng/mL human EGF recombinant protein (Thermo Fisher Scientific, cat. PHG0311). […]", "data": [{"smiles": "CC(Nc1ccc2c(c1)OCCn1cc(N3C(=O)OCC3C(F)F)nc1-2)C(N)=O", "note": "(stereo unspecified)", "values": [{"measurement": "viability, T/C", "setting": "compound 0.00316 µM", "value": "96.5% [middle of 8 runs]"}, {"measurement": "viability, T/C", "setting": "compound 0.01 µM", "value": "91.7% [middle of 8 runs]"}, {"measurement": "viability, T/C", "setting": "compound 0.0316 µM", "value": "71.5% [middle of 8 runs]"}, {"measurement": "viability, T/C", "setting": "compound 0.1 µM", "value": "40.2% [middle of 8 runs]"}, {"measurement": "viability, T/C", "setting": "compound 0.316 µM", "value": "29.8% [middle of 8 runs]"}, {"measurement": "viability, T/C", "setting": "compound 1 µM", "value": "18.9% [middle of 8 runs]"}, {"measurement": "IC50", "setting": "compound alone, run of 04/24/2023", "value": "72 nM [middle of 8 runs]"}]}, {"smiles": "CCN1CCN(Cc2ccc(Nc3ncc(F)c(-c4cc(F)c5nc(C)n(C(C)C)c5c4)n3)nc2)CC1", "note": "+ COc1c(OCCCN2CCOCC2)ccc2c3n(c(=NC(=O)c4cnc(N)nc4)nc12)CCN3", "values": [{"measurement": "IC50", "setting": "curve of first compound, second compound 0.00316 µM", "value": 234, "unit": "nM"}, {"measurement": "IC50", "setting": "curve of first compound, second compound 0.01 µM", "value": 35.6, "unit": "nM"}, {"measurement": "IC50", "setting": "curve of first compound, second compound 0.0316 µM", "value": "< 3.16", "unit": "nM"}, {"measurement": "IC50", "setting": "curve of first compound, second compound 0.1 µM", "value": "< 3.16", "unit": "nM"}, {"measurement": "IC50", "setting": "curve of first compound, second compound 0.316 µM", "value": "< 3.16", "unit": "nM"}, {"measurement": "IC50", "setting": "curve of first compound, second compound 1 µM", "value": "< 3.16", "unit": "nM"}, {"measurement": "viability, T/C", "setting": "second compound 0.00316 µM, first compound 0.00316 µM", "value": 91.3, "unit": "%"}, {"measurement": "viability, T/C", "setting": "second compound 0.00316 µM, first compound 0.01 µM", "value": 83.5, "unit": "%"}, {"measurement": "viability, T/C", "setting": "second compound 0.00316 µM, first compound 0.0316 µM", "value": 70.2, "unit": "%"}, {"measurement": "viability, T/C", "setting": "second compound 0.00316 µM, first compound 0.1 µM", "value": 57.2, "unit": "%"}, {"measurement": "viability, T/C", "setting": "second compound 0.00316 µM, first compound 0.316 µM", "value": 47.6, "unit": "%"}, {"measurement": "viability, T/C", "setting": "second compound 0.00316 µM, first compound 1 µM", "value": 42.3, "unit": "%"}, {"measurement": "viability, T/C", "setting": "second compound 0.01 µM, first compound 0.00316 µM", "value": 65.5, "unit": "%"}, {"measurement": "viability, T/C", "setting": "second compound 0.01 µM, first compound 0.01 µM", "value": 62.2, "unit": "%"}, {"measurement": "viability, T/C", "setting": "second compound 0.01 µM, first compound 0.0316 µM", "value": 51.4, "unit": "%"}, {"measurement": "viability, T/C", "setting": "second compound 0.01 µM, first compound 0.1 µM", "value": 40.4, "unit": "%"}, {"measurement": "viability, T/C", "setting": "second compound 0.01 µM, first compound 0.316 µM", "value": 40.7, "unit": "%"}, {"measurement": "viability, T/C", "setting": "second compound 0.01 µM, first compound 1 µM", "value": 38.8, "unit": "%"}, {"measurement": "viability, T/C", "setting": "second compound 0.0316 µM, first compound 0.00316 µM", "value": 36.3, "unit": "%"}, {"measurement": "viability, T/C", "setting": "second compound 0.0316 µM, first compound 0.01 µM", "value": 31.1, "unit": "%"}, {"measurement": "viability, T/C", "setting": "second compound 0.0316 µM, first compound 0.0316 µM", "value": 24.8, "unit": "%"}, {"measurement": "viability, T/C", "setting": "second compound 0.0316 µM, first compound 0.1 µM", "value": 25.9, "unit": "%"}, {"measurement": "viability, T/C", "setting": "second compound 0.0316 µM, first compound 0.316 µM", "value": 24, "unit": "%"}, {"measurement": "viability, T/C", "setting": "second compound 0.0316 µM, first compound 1 µM", "value": 21.5, "unit": "%"}, {"measurement": "viability, T/C", "setting": "second compound 0.1 µM, first compound 0.00316 µM", "value": 14.6, "unit": "%"}, {"measurement": "viability, T/C", "setting": "second compound 0.1 µM, first compound 0.01 µM", "value": 12.9, "unit": "%"}, {"measurement": "viability, T/C", "setting": "second compound 0.1 µM, first compound 0.0316 µM", "value": 18.3, "unit": "%"}, {"measurement": "viability, T/C", "setting": "second compound 0.1 µM, first compound 0.1 µM", "value": 11.5, "unit": "%"}, {"measurement": "viability, T/C", "setting": "second compound 0.1 µM, first compound 0.316 µM", "value": 12.6, "unit": "%"}, {"measurement": "viability, T/C", "setting": "second compound 0.1 µM, first compound 1 µM", "value": 11.8, "unit": "%"}, {"measurement": "viability, T/C", "setting": "second compound 0.316 µM, first compound 0.00316 µM", "value": 4.77, "unit": "%"}, {"measurement": "viability, T/C", "setting": "second compound 0.316 µM, first compound 0.01 µM", "value": 4.9, "unit": "%"}, {"measurement": "viability, T/C", "setting": "second compound 0.316 µM, first compound 0.0316 µM", "value": 4.63, "unit": "%"}, {"measurement": "viability, T/C", "setting": "second compound 0.316 µM, first compound 0.1 µM", "value": 4.67, "unit": "%"}, {"measurement": "viability, T/C", "setting": "second compound 0.316 µM, first compound 0.316 µM", "value": 4.91, "unit": "%"}, {"measurement": "viability, T/C", "setting": "second compound 0.316 µM, first compound 1 µM", "value": 6.41, "unit": "%"}, {"measurement": "viability, T/C", "setting": "second compound 1 µM, first compound 0.00316 µM", "value": 2.94, "unit": "%"}, {"measurement": "viability, T/C", "setting": "second compound 1 µM, first compound 0.01 µM", "value": 3, "unit": "%"}, {"measurement": "viability, T/C", "setting": "second compound 1 µM, first compound 0.0316 µM", "value": 3.07, "unit": "%"}, {"measurement": "viability, T/C", "setting": "second compound 1 µM, first compound 0.1 µM", "value": 3.49, "unit": "%"}, {"measurement": "viability, T/C", "setting": "second compound 1 µM, first compound 0.316 µM", "value": 4.44, "unit": "%"}, {"measurement": "viability, T/C", "setting": "second compound 1 µM, first compound 1 µM", "value": 6.38, "unit": "%"}]}, {"smiles": "COc1c(OCCCN2CCOCC2)ccc2c3n(c(=NC(=O)c4cnc(N)nc4)nc12)CCN3", "values": [{"measurement": "viability, T/C", "setting": "compound 0.00316 µM", "value": "93.8% [middle of 8 runs]"}, {"measurement": "viability, T/C", "setting": "compound 0.01 µM", "value": "70.5% [middle of 8 runs]"}, {"measurement": "viability, T/C", "setting": "compound 0.0316 µM", "value": "40% [middle of 8 runs]"}, {"measurement": "viability, T/C", "setting": "compound 0.1 µM", "value": "15.4% [middle of 8 runs]"}, {"measurement": "viability, T/C", "setting": "compound 0.316 µM", "value": "4.37% [middle of 7 runs]"}, {"measurement": "viability, T/C", "setting": "compound 1 µM", "value": "3.24% [middle of 8 runs]"}, {"measurement": "IC50", "setting": "compound alone, run of 04/25/2023", "value": "20.7 nM [middle of 8 runs]"}]}]}
